In patent publication US20250282829A1, “ENGINEERED SYNTHETIC PEPTIDES, COMPOSITIONS COMPRISING SAME, AND METHODS OF USE THEREOF FOR TREATING MALIGNANT GLIOMAS” (INSTYTUT BIOLOGII DOSWIADCZALNEJ IM. MARCELEGO NENCKIEGO …, priority 2022, published 2025):

Experiments:
recombinant OPN protein = recombinant OPN protein (Homo sapiens, UniProt P10451); assay: ELISA assessing peptide-protein binding; settings: N-terminal biotin peptides on OPN-coated plates
Procedure: FIGS. 2A and 2B. OPN-binding peptides. (FIG. 2A) OPN binding peptides were identified using peptide microarrays comprising synthetic peptides. Images of peptide microarrays after incubation with PBS buffer (control), with rhOPN and after immunochemical staining. Control peptides (peptide containing Myc tag—positive control) and peptides with the highest signal were marked on the microarray image. (FIG. 2B) OPN binding peptides identified using ELISA. Peptides with the strongest binding to OPN were selected. Means ±SD are shown, standard deviations were calculated from three independents measurements.
To verify the obtained results, the ELISA method assessing peptide-protein binding was used. In the assay, 96-well ELISA plates were coated with recombinant OPN protein. Uncoated wells were used as controls. Unbound proteins were then washed away and the remaining non-specific binding was blocked with bovine serum protein (BSA). Test peptides with N-terminal biotin attached were added. After incubation, unbound peptides were removed by washing several times. Peptides that bound to OPN were detected using a primary anti-biotin antibody and a secondary antibody linked to horseradish peroxidase. This enzyme catalyses a reaction in which a coloured product is formed from the added substrate. The amount of bound peptides was proportional to the amount of coloured product, which was measured using a spectrophotometer. Of the 52 integrin receptor-derived peptides tested, 9 OPN-binding peptides were identified: I3, I4, I20, I32, I38, I40, I47, I49, I50 (FIG. 2B). The following peptides were selected for further analysis: […], I4, I20, I32, I38, I40, I47, I49, I50.

[1] = tested on: U87 MG cells stimulated by BV2 microglial cells; assay: Matrigel invasiveness of U87 MG cells in co-culture with BV2 microglia; assay type: cell-based, human; settings: 100 μM, 18 h
Procedure: (§1) FIG. 4. Effect of OPN binding peptides on U87 MG cell invasiveness in the presence of murine BV2 and human SV40 microglial cells. (K−)—negative control—invasiveness of U87 MG cells without microglia; (K+)—positive control, invasiveness of U87 MG dependent on BV2 or SV40 microglia, defined as 100%; DMSO-cells treated with 0.2% DMSO-peptide solvent. Results are presented as means ±standard deviation calculated from three independent biological replicates. Selected peptides block microglia-dependent invasiveness.
(§2) Studies conducted by the present inventors indicate an important role of the OPN protein in the reprogramming of microglia and peripheral macrophages by glioblastoma cells to a protumorigenic phenotype (Ellert-Miklaszewska et al. 2016). […] Investigating the contribution of human OPN to human glioblastoma growth is important in the context of using a peptide that binds human OPN produced by glioma and can block communication between the glioma and the microenvironment. The U87 MG RFP human glioblastoma cell line was established with silenced expression of the OPN protein (shOPN). […] The number of glioma cells actively penetrating the Matrigel Matrix layer (BD Biosciences, extracellular matrix surrogate) in the presence of SV40 human microglial cells was counted. Microglial cells are plated on 24-well plate, after 24 hours, inserts previously covered with Matrigel suspension are placed in the wells, and glioblastoma cells are seeded on its surface. The tested compounds, potentially blocking the invasiveness of cells, are added in a certain concentration to the medium in both the lower and upper layers of the system. After 18 hours of incubation, the Matrigel is removed and the cells on the insert membrane (invading cells) are fixed and stained with a DAPI fluorescent marker. Slides were then photographed using a fluorescence microscope and cells were counted using Image J software (imagej.nih.gov/ij/).
(§3) The effect of selected OPN-binding peptides on the invasiveness of U87 MG cells stimulated by the presence of microglial cells was investigated. […]

[2] = tested on: U87 MG cells and SV40 human microglia cells; assay: Matrigel invasiveness of U87 MG cells with SV40 human microglia; assay type: cell-based
Procedure: as §1, §2, §3

[3] = tested on: human glioblastoma U87 MG RFP cells implanted in the brain of nude mice; assay: Mouse model of human glioblastoma, intratumoural osmotic pump, MRI tumour size; assay type: in vivo; settings: osmotic pump for 3 weeks, MRI T2, control peptide I49S
Procedure: FIGS. 5A and 5B. Effect of peptide 149 on glioblastoma growth in mice. (FIG. 5A) Representative images obtained after vital MRI imaging. The pictures show a section through the center of the tumour, showing the cannula supplying the peptide from the osmotic pump. (FIG. 5B) Tumour volume (n=10) calculated using OsiriX DICOM Viewer from MRI scans.
The anticancer effect of the 149 peptide has been tested. The model of human glioblastoma U87 MG RFP cells implanted in the brain of nude (immunodeficient) mice was used. Peptides were administered via osmotic pumps delivering the peptide directly to the tumour at a constant rate. […] Peptide I49 or control peptide I49S were administered using pumps for 3 weeks, pumps were installed in the mouse brain immediately after implantation of U87 MG RFP cells. Magnetic resonance imaging (MRI T2) was used to assess the size of the tumours.

alphav integrins = molecular target: T1, alphav integrins (Homo sapiens, UniProt P06756); settings: large number of patients, phase III; cited from earlier work
T1 construct: host or cells: patients
T1 sequence (P06756 31-1048): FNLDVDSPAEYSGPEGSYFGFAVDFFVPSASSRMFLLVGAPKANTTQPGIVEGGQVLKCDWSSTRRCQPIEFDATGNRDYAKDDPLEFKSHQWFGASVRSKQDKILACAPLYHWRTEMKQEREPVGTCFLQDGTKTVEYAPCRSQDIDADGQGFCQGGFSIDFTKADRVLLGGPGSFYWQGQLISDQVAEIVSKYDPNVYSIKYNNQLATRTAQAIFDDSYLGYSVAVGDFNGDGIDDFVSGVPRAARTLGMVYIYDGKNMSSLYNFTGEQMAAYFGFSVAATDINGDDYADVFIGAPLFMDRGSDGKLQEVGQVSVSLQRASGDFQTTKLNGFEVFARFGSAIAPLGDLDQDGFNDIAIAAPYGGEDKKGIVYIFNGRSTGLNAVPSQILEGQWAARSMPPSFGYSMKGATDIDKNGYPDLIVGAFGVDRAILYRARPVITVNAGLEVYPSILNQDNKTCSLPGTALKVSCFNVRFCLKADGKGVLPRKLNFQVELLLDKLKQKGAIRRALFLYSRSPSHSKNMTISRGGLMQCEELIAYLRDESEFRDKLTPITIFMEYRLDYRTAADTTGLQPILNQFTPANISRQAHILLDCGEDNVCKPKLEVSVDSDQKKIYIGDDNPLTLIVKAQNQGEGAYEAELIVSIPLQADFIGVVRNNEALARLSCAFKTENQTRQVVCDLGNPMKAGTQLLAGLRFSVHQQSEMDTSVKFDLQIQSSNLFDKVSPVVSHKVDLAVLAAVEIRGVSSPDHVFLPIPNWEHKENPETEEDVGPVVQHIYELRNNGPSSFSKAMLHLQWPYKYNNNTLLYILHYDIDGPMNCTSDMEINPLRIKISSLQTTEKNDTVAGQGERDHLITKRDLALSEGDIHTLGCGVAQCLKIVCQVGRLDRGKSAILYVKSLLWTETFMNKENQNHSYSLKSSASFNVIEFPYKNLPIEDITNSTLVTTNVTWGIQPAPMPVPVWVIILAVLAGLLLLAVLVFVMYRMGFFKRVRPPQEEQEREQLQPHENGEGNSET

Chain of recombinant OPN protein (P10451 17-314): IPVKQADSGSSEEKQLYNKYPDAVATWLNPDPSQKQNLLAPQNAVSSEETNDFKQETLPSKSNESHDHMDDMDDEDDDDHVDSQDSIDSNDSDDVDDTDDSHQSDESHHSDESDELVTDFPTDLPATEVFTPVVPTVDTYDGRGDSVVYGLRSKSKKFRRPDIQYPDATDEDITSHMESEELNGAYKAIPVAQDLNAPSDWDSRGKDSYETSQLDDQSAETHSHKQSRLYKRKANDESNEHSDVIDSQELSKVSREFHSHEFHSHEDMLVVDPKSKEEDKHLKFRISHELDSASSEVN

| Compound | peptide binding to OPN in ELISA (recombinant OPN protein) | inhibition of microglia-dependent glioma cell invasiveness [1] | effect on invasiveness of U87 cells in the presence of human SV40 microglia [2] | tumour growth compared to the control group [3] | clinical effectiveness (alphav integrins) |
| --- | --- | --- | --- | --- | --- |
| SLYNFTGEQMAAYF (listed as Homo sapiens) [I50] | OPN-binding | inhibited microglia-dependent glioma cell invasiveness | inhibited the invasiveness | – | – |
| YDGKNMSSLYNFTG [I49] | OPN-binding | inhibited microglia-dependent glioma cell invasiveness | inhibited the invasiveness | reduction in tumour growth | – |
| SKYDPNVYSIKYNN (listed as Homo sapiens) [I40] | OPN-binding | inhibited microglia-dependent glioma cell invasiveness | inhibited the invasiveness | – | – |
| CC(C)[C@H]1C(=O)N[C@@H](CCCN=C(N)N)C(=O)NCC(=O)N[C@@H](CC(=O)O)C(=O)N[C@H](Cc2ccccc2)C(=O)N1C [cilengitide, cyclo-(Arg-Gly-Asp-DPhe-NMe-Val)] | – | – | – | – | did not show the effectiveness |
